Columns and labels:
[1] = plasma half-life in the dog; format: in vivo; settings: chez le chien, read-out: demi-vie plasmatique
[2] = plasma half-life in the rat; format: in vivo; settings: chez le rat, read-out: demi-vie plasmatique

`CCN(CC)CCNC(=O)c1cc(Cl)c(N)cc1OC` [Metoclopramide] gave a half-life [1] of 1 to 1.5 h and a half-life [2] of 1 to 1.5 h.
